Test [1] concerns LPS driven TNFα secretion in Peripheral Blood Mononuclear Cells (PBMC). Nature of the test: cells. Format: cell-based. The note with it: Homo sapiens, LPS 1 ng/mL, supernatant after 18-20 h, ELISA.
Description: This assay measures the inhibition of LPS driven TNFα secretion by a test compound in Peripheral Blood Mononuclear Cells (PBMC), which in turn correlates with SIK inhibition.
PBMCs are isolated from human blood samples (buffy coats). The buffy coat is aseptically transferred into a 50 mL Falcon™ tube, and diluted 1/2 in Phosphate Buffered Saline (PBS). […] The tubes are centrifuged for 35 min at 400× g in temperature controlled centrifuge, without brake, at 25° C. PBMCs are aspirated from the white interface layer between sample and Lymphoprep. PBMCs are washed five times in PBS. […] The PBMCs are finally seeded at 400,000 PBMC/160 μL/96-well.
A compound dilution plate is made in 100% DMSO by 3-fold dilution of 10 mM stock solution of test compound. An intermediate dilution plate (10× final concentration) is made by diluting the compound dilution plate 50-fold in RPMI medium.
20 μL of the 10× final concentration compound is added to the cells and incubated for 1 hour at 37° C. before addition of trigger. No trigger conditions/trigger conditions are spiked with equal final DMSO concentrations of 0.2% DMSO. 20 μL of 10×LPS (final concentration 1 ng/mL) solution are added to all wells except for the ‘no trigger wells’ where 20 μL medium is added. Supernatant is collected after 18-20 h for IL-10 and TNFα determination using ELISA.
The plate is then washed once with PBST (PBS+0.05% Tween20) and once with PBS followed by the addition of 100 μL of blocking buffer (1% Bovine Serum Albumin (BSA)-5% Sucrose) and plates are sealed and incubated for at least 4 h at RT. After washing the plate once with PBST and once with PBS, 40 μL of standard or sample are added (TNFα standard curve is prepared using a 1/2 serial dilution starting from 16000 pg/mL; dilutions are made in dilution buffer (PBS+1% BSA)). Plates are washed twice with PBST, and once with PBS, after which 35 μL of the detection antibody is added (final concentration 0.25 μg/mL diluted in dilution buffer) and plates are incubated for at least 2 h at RT. Plates are washed twice with PBST, and once with PBS, where after 35 μL of Strep-HRP conjugate (0.5 μg/mL final concentration diluted in dilution buffer) is added. Plates are incubated in the dark, at RT for at least 45 min but no longer than 1 hour. Plates are washed twice with PBST, and once with PBS. Thereafter, 50 μL of luminol substrate is added to each well (prepared according to manufacturer's instructions), and incubated for 5 min at RT protected from light.
To measure the inhibition of LPS induced TNFα, percentage inhibition (PIN) values are calculated for all concentrations tested, compared to controls.
PIN values are plotted in concentration-response and EC50 values are derived using GraphPad Prism Software, applying 4-parameter nonlinear regression (sigmoidal) curve fitting.
Test [2] deals with LPS-induced TNFα secretion in monocyte-derived macrophages (MdM). Nature of the test: MdM assay: LPS-triggered TNFα (ELISA). Format: cell-based, human. The following applies: Homo sapiens, Macrophage, LPS-triggered TNFα inhibition. The method in brief:
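Human CD14+ monocytes isolated from buffy-coat PBMCs by magnetic beads, differentiated to macrophages; on day 10 compound preincubated 1 h at 37 °C, then LPS 200 ng/mL added (0.2% DMSO). Supernatant taken after 20 h; TNFα quantified by sandwich ELISA against standard curve.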
On the technique in general: In an ELISA, binding on a coated surface is turned into a signal by an enzyme label.

For test [3], the target named is T1, SIK3 (Homo sapiens, UniProt Q9Y2K2).
T1 construct: purchased SignalChem S12-11G-100
The experiment in a line: biochemical. A digest of the protocol:
(§1)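 Radiometric assay: SIK1, SIK2 or SIK3 phosphorylates AMARA peptide using unlabelled plus [^33P]-γ-ATP, reaction started by ATP addition. Stopped with 150 mM phosphoric acid, filter-harvested and washed; incorporated ^33P counted by scintillation. Controls: 1% DMSO and 10 μM staurosporine final.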

Test [4] concerns the target T2, SIK2 (Homo sapiens, UniProt Q9H0K1).
T2 construct: purchased ThermoFisher Scientific PV4792
The experiment in a line: biochemical. The note with it: 33P radioactive SIK kinase assay, AMARA peptide, 10 μM ATP. The method in brief:
as §1

Test [5] addresses T3, SIK1 (Homo sapiens, UniProt P57059).
T3 construct: purchased Carna Biosciences 02-131
Nature of the test: biochemical. The following applies: 33P radioactive SIK kinase assay, AMARA peptide, 10 μM ATP; read-out: SIK1 IC50. A digest of the protocol:
as §1

Test [6] concerns LPS triggered IL-10 secretion in monocyte-derived macrophages (MdM). The experiment in a line: MdM assay: LPS-triggered IL-10 (ELISA). Format: cell-based, human. The following applies: maximal fold change vs LPS only, median across assays. The method in brief: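 CD14+ monocytes isolated from human buffy-coat PBMCs and differentiated to macrophages for 10 days. Cells pre-treated with compound 1 h at 37° C (0.2% DMSO), then stimulated with 200 ng/mL LPS; IL-10 in supernatant at 2 h measured by ELISA (A450). Maximal fold change versus LPS only reported as median of two or more runs.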

The structures appear in SMILES notation.

As usually defined, the EC50 is the concentration at which the effect is half-maximal. Low values mean an effect from little substance, high ones a need for much substance. The term IC50 denotes the point on the concentration scale where inhibition reaches its midpoint.

T2 sequence (Q9H0K1 whole entry): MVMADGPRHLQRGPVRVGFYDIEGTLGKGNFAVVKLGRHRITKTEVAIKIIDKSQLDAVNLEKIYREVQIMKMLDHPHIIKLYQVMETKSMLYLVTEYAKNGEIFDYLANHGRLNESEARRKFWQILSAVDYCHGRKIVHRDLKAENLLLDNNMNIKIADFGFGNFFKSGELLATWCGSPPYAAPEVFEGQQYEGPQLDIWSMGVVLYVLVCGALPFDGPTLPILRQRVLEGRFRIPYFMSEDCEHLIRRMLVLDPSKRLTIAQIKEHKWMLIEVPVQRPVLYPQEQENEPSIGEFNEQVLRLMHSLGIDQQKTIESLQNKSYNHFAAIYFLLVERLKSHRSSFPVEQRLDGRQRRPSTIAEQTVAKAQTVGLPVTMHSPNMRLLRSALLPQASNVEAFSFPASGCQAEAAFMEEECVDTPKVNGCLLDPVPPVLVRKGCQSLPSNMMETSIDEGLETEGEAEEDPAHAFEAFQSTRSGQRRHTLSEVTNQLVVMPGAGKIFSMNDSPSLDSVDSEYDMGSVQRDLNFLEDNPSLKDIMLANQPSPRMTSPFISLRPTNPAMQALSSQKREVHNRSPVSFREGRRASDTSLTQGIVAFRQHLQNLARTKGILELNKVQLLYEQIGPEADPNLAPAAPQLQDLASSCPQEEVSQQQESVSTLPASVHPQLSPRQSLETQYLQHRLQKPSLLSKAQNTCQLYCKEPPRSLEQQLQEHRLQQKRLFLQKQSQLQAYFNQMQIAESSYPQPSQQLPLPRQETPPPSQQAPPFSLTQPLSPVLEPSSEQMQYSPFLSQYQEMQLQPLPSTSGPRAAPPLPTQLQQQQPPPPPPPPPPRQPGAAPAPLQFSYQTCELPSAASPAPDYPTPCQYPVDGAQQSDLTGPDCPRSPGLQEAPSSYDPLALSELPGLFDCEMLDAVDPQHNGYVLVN
T3 sequence (P57059 whole entry): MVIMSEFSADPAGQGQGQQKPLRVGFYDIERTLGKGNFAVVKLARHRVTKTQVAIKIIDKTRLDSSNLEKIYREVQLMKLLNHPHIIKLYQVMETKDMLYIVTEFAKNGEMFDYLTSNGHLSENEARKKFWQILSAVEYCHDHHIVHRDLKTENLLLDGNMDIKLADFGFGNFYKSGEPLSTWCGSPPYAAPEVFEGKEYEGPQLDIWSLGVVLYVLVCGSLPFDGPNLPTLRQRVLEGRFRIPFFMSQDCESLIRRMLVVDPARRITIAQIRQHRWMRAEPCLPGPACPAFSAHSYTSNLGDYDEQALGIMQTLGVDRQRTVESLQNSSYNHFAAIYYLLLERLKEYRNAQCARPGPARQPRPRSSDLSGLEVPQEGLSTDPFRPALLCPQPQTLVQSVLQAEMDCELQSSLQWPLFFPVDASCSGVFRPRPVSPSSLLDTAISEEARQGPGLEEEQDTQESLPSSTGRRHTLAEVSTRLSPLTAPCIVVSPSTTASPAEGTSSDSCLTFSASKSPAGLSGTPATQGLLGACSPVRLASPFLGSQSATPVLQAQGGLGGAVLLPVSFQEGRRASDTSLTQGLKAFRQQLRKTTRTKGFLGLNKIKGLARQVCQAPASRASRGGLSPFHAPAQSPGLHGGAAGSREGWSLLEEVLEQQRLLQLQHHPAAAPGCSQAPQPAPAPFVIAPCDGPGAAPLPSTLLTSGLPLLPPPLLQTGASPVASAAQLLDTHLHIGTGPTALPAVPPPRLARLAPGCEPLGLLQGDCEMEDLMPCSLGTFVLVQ
T1 sequence (Q9Y2K2 whole entry): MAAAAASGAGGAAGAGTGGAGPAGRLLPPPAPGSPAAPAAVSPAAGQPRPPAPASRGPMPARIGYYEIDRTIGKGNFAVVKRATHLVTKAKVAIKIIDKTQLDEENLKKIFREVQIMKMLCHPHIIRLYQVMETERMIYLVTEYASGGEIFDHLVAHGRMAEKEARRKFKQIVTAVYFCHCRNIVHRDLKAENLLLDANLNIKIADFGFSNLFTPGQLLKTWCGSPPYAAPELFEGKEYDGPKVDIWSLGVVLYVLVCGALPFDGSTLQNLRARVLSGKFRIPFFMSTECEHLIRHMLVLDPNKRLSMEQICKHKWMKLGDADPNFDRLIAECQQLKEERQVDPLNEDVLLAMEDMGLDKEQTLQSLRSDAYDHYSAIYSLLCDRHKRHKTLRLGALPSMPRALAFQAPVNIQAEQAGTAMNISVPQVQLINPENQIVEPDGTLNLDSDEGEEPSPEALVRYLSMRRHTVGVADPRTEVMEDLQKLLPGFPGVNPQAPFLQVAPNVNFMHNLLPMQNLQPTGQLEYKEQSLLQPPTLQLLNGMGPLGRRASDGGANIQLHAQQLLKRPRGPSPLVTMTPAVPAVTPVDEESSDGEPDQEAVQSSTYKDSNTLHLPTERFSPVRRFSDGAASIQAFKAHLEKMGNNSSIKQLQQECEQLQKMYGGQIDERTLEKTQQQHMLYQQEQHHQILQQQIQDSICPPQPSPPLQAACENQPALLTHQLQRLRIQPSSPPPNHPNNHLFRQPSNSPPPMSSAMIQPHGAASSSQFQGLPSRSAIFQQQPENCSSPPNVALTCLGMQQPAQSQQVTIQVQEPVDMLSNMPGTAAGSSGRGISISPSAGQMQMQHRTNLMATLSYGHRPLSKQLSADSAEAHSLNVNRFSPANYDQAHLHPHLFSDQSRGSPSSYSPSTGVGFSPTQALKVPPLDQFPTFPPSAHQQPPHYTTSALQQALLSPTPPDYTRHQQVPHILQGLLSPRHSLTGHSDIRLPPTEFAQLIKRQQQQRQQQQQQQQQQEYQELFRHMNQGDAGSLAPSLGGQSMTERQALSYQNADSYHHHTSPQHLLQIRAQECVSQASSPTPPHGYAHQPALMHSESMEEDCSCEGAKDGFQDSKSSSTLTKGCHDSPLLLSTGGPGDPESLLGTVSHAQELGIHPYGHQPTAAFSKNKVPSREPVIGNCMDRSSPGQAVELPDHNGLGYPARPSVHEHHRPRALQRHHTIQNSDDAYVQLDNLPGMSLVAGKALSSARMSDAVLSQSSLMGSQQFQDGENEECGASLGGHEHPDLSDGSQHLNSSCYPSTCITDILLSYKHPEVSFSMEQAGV

`COc1cc(-n2cnc3cc(-c4cnn(CCN5CCOCC5)c4)ccc32)cc(OC(F)F)c1C(=O)NC1CC1` [compound 56, N-cyclopropyl-2-(difluoromethoxy)-6-methoxy-4-[5-[1-(2-morpholinoethyl)pyrazol-4-yl]benzimidazol-1-yl]benzamide]: the EC50 in test [1] and in test [2] was 0.1 to 100 nM throughout. The IC50 in test [3], in test [4] and in test [5] was 0.01 to 10 nM in each case. In addition, the “IL-10 FCmax median” value in test [6] is reported as “++ (>1.5-4.5)”.

`CCNC(=O)c1c(OC)cc(-n2cnc3cc(-c4cnn(CCN5CCOCC5)c4)ccc32)cc1OC(F)F` [compound 57, 2-(difluoromethoxy)-N-ethyl-6-methoxy-4-[5-[1-(2-morpholinoethyl)pyrazol-4-yl]benzimidazol-1-yl]benzamide]: the EC50 was in the range of 0.1 to 100 nM in test [1] and 100 to 1000 nM in test [2]. The results for the IC50 in test [3], in test [4] and in test [5] were 0.01 to 10 nM, 0.01 to 10 nM and 10 to 100 nM, respectively. Besides, the “IL-10 FCmax median” value in test [6] is given as “++ (>1.5-4.5)”.

Take `COc1cc(-n2cnc3cc(-c4cnn(C)c4)ccc32)cc(OC)c1C(=O)NCC(F)F` [compound 78, N-(2,2-difluoroethyl)-2,6-dimethoxy-4-[5-(1-methylpyrazol-4-yl)benzimidazol-1-yl]benzamide]: the EC50 lay within 0.1 to 100 nM in test [1] and 100 to 1000 nM in test [2]. Further, the IC50 was in the range of 0.01 to 10 nM in test [3], 0.01 to 10 nM in test [4] and 10 to 100 nM in test [5]. Besides, the “IL-10 FCmax median” value in test [6] is “++ (>1.5-4.5)”.

Take `COCCn1cc(-c2ccc3c(c2)ncn3-c2cc(OC)c(C(=O)NCC(F)(F)F)c(OC)c2)cn1` [compound 84, 2,6-dimethoxy-4-[5-[1-(2-methoxyethyl)pyrazol-4-yl]benzimidazol-1-yl]-N-(2,2,2-trifluoroethyl)benzamide]: the EC50 in test [1] and in test [2] was 0.1 to 100 nM each time. Further, the IC50 in test [3] lay in the range of 0.01 to 10 nM; in test [4], 0.01 to 10 nM; in test [5], 10 to 100 nM. Further, the “IL-10 FCmax median” value in test [6] is on record as “++ (>1.5-4.5)”.

Regarding `COc1cc(-n2cnc3cc(-c4cnn(C5COC5)c4)ccc32)cc(OC)c1C(=O)NCC(F)(F)F` [compound 85, 2,6-dimethoxy-4-[5-[1-(oxetan-3-yl)pyrazol-4-yl]benzimidazol-1-yl)-N-(2,2,2-trifluoroethyl)benzamide], the EC50 in test [1] and in test [2] was 0.1 to 100 nM in each case. Besides, the IC50 in test [3] lay within 0.01 to 10 nM; in test [4] it was 0.01 to 10 nM; in test [5], 10 to 100 nM. In addition, the “IL-10 FCmax median” value in test [6] was “++ (>1.5-4.5)”.

Regarding `COc1cc(-n2cnc3cc(-c4cnn(C5CC5)c4)ccc32)cc(OC)c1C(=O)NCC(F)(F)F` [compound 96, 4-[5-(l-cyclopropylpyrazol-4-yl)benzimidazol-1-yl]-2,6-dimethoxy-N-(2,2,2-trifluoroethyl)benzamide], the EC50 in test [1] and in test [2] was 0.1 to 100 nM throughout. Further, the concentration for half-maximal inhibition (IC50) in test [3] lay within 0.01 to 10 nM; in test [4] it was 0.01 to 10 nM; in test [5], 10 to 100 nM. Further, in test [6], the “IL-10 FCmax median” value is “++ (>1.5-4.5)”.

With `COc1cc(-c2cnc3cc(-c4cnn(C)c4)ccn23)cc(OC)c1C(=O)NC1CC1` [compound 102, N-cyclopropyl-2,6-dimethoxy-4-[7-(1-methylpyrazol-4-yl)imidazo[1,2-a]pyridin-3-yl]benzamide], the EC50 in test [1] and in test [2] was 0.1 to 100 nM in each case. Also, the IC50 in test [3], in test [4] and in test [5] was 0.01 to 10 nM each time. For the same molecule, the “IL-10 FCmax median” value in test [6] was “++ (>1.5-4.5)”.

As to `COc1cc(-c2cnc3cc(-c4cnn(C)c4)cnn23)cc(OC)c1C(=O)NC1CC1` [compound 112, N-cyclopropyl-2,6-dimethoxy-4-[7-(1-methylpyrazol-4-yl)imidazo[1,2-b]pvridazin-3-yl]benzamide], the EC50 in test [1] and in test [2] was 0.1 to 100 nM each time. In addition, the IC50 in test [3], in test [4] and in test [5] was 0.01 to 10 nM each time. Besides, the “IL-10 FCmax median” value in test [6] is on record as “+ (≤1.5)”.

With `CCNC(=O)c1c(OC)cc(-c2cnc3cc(-c4cnn(C)c4)ccn23)cc1OC(F)F` [compound 116, 2-(difluoromethoxy)-N-ethyl-6-methoxy-4-[7-(1-methylpyrazol-4-yl)imidazo[1,2-a]pyridin-3-yl]benzamide], the EC50 in test [1] and in test [2] was 0.1 to 100 nM throughout. The IC50 in test [3], in test [4] and in test [5] was 0.01 to 10 nM in each case. Besides, the “IL-10 FCmax median” value in test [6] is “++ (>1.5-4.5)”.

With `COc1cc(-c2cnc3cc(-c4cnn(C)c4)ccn23)cc(OC)c1C(=O)NCC#N` [compound 122, N-(cyanomethyl)-2,6-dimethoxy-4-[7-(1-methylpyrazol-4-yl)imidazo[1,2-a]pyridin-3-yl]benzamide], the EC50 in test [1] and in test [2] was 0.1 to 100 nM in each case. The IC50 in test [3], in test [4] and in test [5] was 0.01 to 10 nM each time. Further, the “IL-10 FCmax median” value in test [6] is recorded as “++ (>1.5-4.5)”.

As for `CCNC(=O)c1c(OC)cc(-c2cnc3cc(-c4cc(C)no4)ccn23)cc1OC(F)F` [compound 123, 2-(difluoromethoxy)-N-ethyl-6-methoxy-4-[7-(3-methylisoxazol-5-yl)imidazo[1,2-a]pyridin-3-yl]benzamide], the EC50 in test [1] and in test [2] was 0.1 to 100 nM each time. Besides, the results for the IC50 in test [3], in test [4] and in test [5] were 0.01 to 10 nM, 0.01 to 10 nM and 10 to 100 nM, respectively. Besides, the “IL-10 FCmax median” value in test [6] was “++ (>1.5-4.5)”.

In the case of `COc1cc(-c2cnc3cc(-c4cnn(C)c4)ccn23)cc(OC)c1C(=O)N[C@@H](C)C(F)(F)F` [compound 132, 2,6-dimethoxy-4-[7-(1-methylpyrazol-4-yl)imidazo[1,2-a]pyridin-3-yl]-N-[(1S)-2,2,2-trifluoro-1-methyl-ethyl]benzamide], the EC50 in test [1] and in test [2] was 100 to 1000 nM throughout. Besides, the IC50 in test [3], in test [4] and in test [5] was 10 to 100 nM in each case. Besides, the “IL-10 FCmax median” value in test [6] is on record as “+ (≤1.5)”.

For `CCNC(=O)c1c(OC)cc(-c2cnc3cc(-c4cn(C)cn4)ccn23)cc1OC(F)F` [compound 178, 2-(difluoromethoxy)-N-ethyl-6-methoxy-4-[7-(1-methylimidazol-4-yl)imidazo[1,2-a]pyridin-3-yl]benzamide], the EC50 in test [1] and in test [2] was 0.1 to 100 nM each time. For the same molecule, the results for the IC50 in test [3], in test [4] and in test [5] were 0.01 to 10 nM, 0.01 to 10 nM and 10 to 100 nM, respectively. Besides, the “IL-10 FCmax median” value in test [6] is listed as “++ (>1.5-4.5)”.

In the case of `COc1cc(-c2cnc3cc(-c4cnn(C)c4)ccn23)cc(F)c1C(=O)NCC(F)(F)F` [compound 203, 2-fluoro-6-methoxy-4-[7-(1-methylpyrazol-4-yl)imidazo[1,2-a]pyridin-3-yl]-N-(2,2,2-trifluoroethyl)benzamide], the EC50 in test [1] and in test [2] was 0.1 to 100 nM in each case. The IC50 in test [3] lay in the range of 0.01 to 10 nM; in test [4] it was 0.01 to 10 nM; in test [5], 10 to 100 nM. Further, the “IL-10 FCmax median” value in test [6] is given as “+++ (>4.5)”.

Values taken from patent publication US12065443B2, “Compounds and pharmaceutical compositions thereof for the treatment of diseases” (priority 2017, dated 2024).
